A melting point compilation (Tetko et al.; mined from patent text by program, amines drawn as free bases though some values may be those of a salt)

Molecule `Cc1cccc2c(=O)[nH]c(C3CCN(CCO)C3)cc12` (single isomer, unassigned; (-)) has a melting point of 137 to 139 °C.
`NCCC1(O)c2ccccc2CCc2ccccc21` showed a melting point of 113 to 114 °C.
Work on `Cc1ccc(C2COc3c(C)c(C)c(N)c(C)c32)nc1` (configuration not stated) yielded a melting point of 125 to 127 °C.
Molecule `CN1C[C@@H](C(=O)OCc2ccccc2)NC1=O` has a melting point of 94 to 95 °C.
For `O=C(O)[C@H](CCc1ccccc1)NS(=O)(=O)c1ccc2c(c1)Sc1ccccc1O2`, the melting point was 149 to 154 °C.
Molecule `CCCc1c(O)ccc2[nH]c(C(=O)OCC)cc12` has a melting point of 185 to 186 °C.
Molecule `CC(=O)SCC(C(=O)NC(Cc1ccc(O)c(O)c1)C(=O)O)C(F)(F)F` (configuration not stated) has a melting point of 175 to 184 °C.
Work on `CS(=O)(=O)c1ccc(C2=C(c3ccc(Cl)c(Cl)c3)CCC2)cc1` yielded a melting point of 100 to 101 °C.
In the case of `CCN(c1ccncc1)c1ccccc1C(=O)N1CCCCC1`, the melting point is reported as 123 to 124 °C.
In the case of `CCOc1noc2c1C(=O)CCC2`, the melting point is reported as 98 to 99 °C.
With `CCCCCN(C[C@H]1CCC[C@H](CN(CCCCC)C(=O)Nc2ccc(N(C)C)cc2)C1)C(=O)Nc1ccc(N(C)C)cc1` (relative stereo) the melting point was 124 to 127 °C.
Work on `O=C(O)CCCc1ccc(NS(=O)(=O)c2ccc(Cl)cc2)cn1` yielded a melting point of 178 to 180 °C.
With `O=C(Nc1c(C(O)(C(F)(F)F)C(F)(F)F)ccc2ccccc12)c1cccc(Cl)c1` the melting point was 179 to 181 °C.
Work on `CN(C)C=Nc1nnnc2c1ncn2C1CC(O)C(CO)O1` (configuration not stated) yielded a melting point of 173 to 175 °C.
`CC(C)(C(=O)c1ccc(SCCCCS)cc1)N1CCOCC1` showed a melting point of 98 °C.
For `O=C(c1nc2ccccc2n1Cc1ccc(F)cc1)C1CCN(CCC2(Cc3ccc(C(F)(F)F)cc3)CCN(Cc3ccccc3)C2=O)CC1` (configuration not stated), the melting point was 104 to 106 °C.
In the case of `CCCCc1nc2c(N)nc(C)c(C)c2n1NC1CCCCC1`, the melting point is reported as 160 to 162 °C.
With `CCOC(=O)C1=C(C)NC(N)=C(C(=O)OC(C)C)C1c1ccccc1C(F)(F)F` (configuration not stated) the melting point was 106 °C.
With `Oc1cc(C(F)(F)F)ccc1I` the melting point was 36 to 38 °C.
For `Clc1cccc2c(C3=CCNCC3)c[nH]c12`, the melting point was 197 to 201 °C.
Molecule `COc1ccc(-c2cc(=O)c3cccnc3o2)cc1` has a melting point of 269 to 270 °C.
For `CCOC(=O)C(C)(C)C(=O)C(Oc1ccc(Cl)cc1)n1cncn1` (configuration not stated), the melting point was 88 to 89 °C.
With `Cc1ccc(Cn2[nH]c(N)cc2=O)cc1Cl` the melting point was 130 to 131 °C.
In the case of `CCOc1nc(N2CCNCC2)nc2c1sc1nc(-c3ccc(C(O)CO)cc3)nc(C)c12` (configuration not stated), the melting point is reported as greater than 300 °C.
For `COc1cc2nc(=O)n3[nH]cnc3c2cc1OC`, the melting point was 320 to 325 °C.
Work on `CCCCc1nc(C(C)O)c(C(=O)O)n1Cc1ccc(-c2ccccc2-c2nnn[nH]2)cc1` (configuration not stated) yielded a melting point of 214 to 217 °C.
Work on `CC(C)(C)OC(=O)C(Nc1ccccc1)C(=O)N1CCCC1` (racemic) yielded a melting point of 80 °C.
Work on `CC(C)N1CCc2ccc(C(=O)CCC(=O)N3CCC(c4ccc(Cl)cc4)CC3)cc2C1` yielded a melting point of 113 to 115 °C.
With `Nc1cccc2c1nnn2C1CCCCC1` the melting point was 54 to 60 °C.
`CCCCSC(=S)N1C(CO)Cc2c([nH]c3ccccc23)C1C` (configuration not stated) showed a melting point of 110 to 113 °C.
Work on `CCOC(=O)CC(=O)Nc1nc(-c2ccc(OC)cc2)c(-c2cccnc2)s1` yielded a melting point of 202 to 203 °C.
Molecule `Nc1sc2c(c1C(=O)c1ccsc1)CCC2` has a melting point of 125 to 127 °C.
Work on `CN(C)Cc1ccc(-c2ccc(S(=O)(=O)n3ccc(C=CC(=O)NO)c3)cc2)cc1` yielded a melting point of 216 to 217 °C.
In the case of `Nc1c(C(=O)c2cc(-c3ccccc3)no2)[nH]c2cc(Cl)ccc12`, the melting point is reported as 241 to 242 °C.
With `CCCCCCCCCCCCCC(=O)Nc1ccc(OC)c(Nc2cc(=O)n(-c3c(Cl)cc(Cl)cc3Cl)[nH]2)c1` the melting point was 89 to 93 °C.
Molecule `CCCCN=C(N(CCCC)CCCC)N(CCCC)CCCC` has a melting point of 100 to 102 °C.
With `CCOC(=O)c1cnn2c(-c3cccc(NC(=O)C4CCC4)c3)ccnc12` the melting point was 123 to 125 °C.
Molecule `CCC1CC(=O)CC23CCN(C#N)C(Cc4ccc(OC)cc42)C13` (configuration not stated) has a melting point of 141 to 145 °C.
For `Clc1ccc(C=C(OC2CCCCC2)n2cncn2)c(Cl)c1`, the melting point was 84 °C.
In the case of `Cn1cc(-c2cccc(Br)c2)c(=O)c(-c2ccc(Cl)c(Cl)c2)c1`, the melting point is reported as 152 to 154 °C.
With `Cc1cc(N2CCC(=O)CC2)nn2cnnc12` the melting point was 196 to 199 °C.
In the case of `COc1ccc(C2CC(c3ccc(F)cc3)=NN2c2ccc(C(=O)O)cc2)cc1` (configuration not stated), the melting point is reported as 218 °C.
Molecule `COc1ccc(CCNC(=O)C=Cc2ccc(C)cc2C)cc1S(N)(=O)=O` has a melting point of 202 °C.
In the case of `COc1cccc(CC(=O)c2c(O)c3cccnc3n(-c3ccccc3)c2=O)c1`, the melting point is reported as 173 to 174 °C.
In the case of `O=C(O)CCc1ccc(-c2ccccc2)cc1`, the melting point is reported as 143 to 149 °C.
Molecule `CCOC(=O)C(O)=Cc1cc(CCc2ccccc2)cnn1` has a melting point of 94 to 95 °C.
Work on `CCc1ccc2oc(=O)c([N+](=O)[O-])c(O)c2c1` yielded a melting point of 114 to 115 °C.
`CCN(c1nc(C)cc(N2CCSCC2)n1)c1ccc(C(C)C)cc1I` showed a melting point of 51 to 53 °C.
`CCCc1cc(CCC)n2nc(N3CCN(C(=O)OCC)CC3)nc2n1` gave a melting point of 130 to 132 °C.
In the case of `COc1ccc(CNc2cc(OC)c(Cl)cc2OC)cc1`, the melting point is reported as 53 to 63 °C.
Molecule `O=C1C=C(c2ccccc2)SCCN1` has a melting point of 148 to 150 °C.
In the case of `CCCNC(=O)C=C1SC(Nc2c(Cl)cccc2Cl)=NC1=O`, the melting point is reported as greater than 230 °C.
